Data from patent US8063048B2, “Acetylenyl-pyrazolo-pyrimidine derivatives” (Hoffmann-La Roche Inc., priority 2005, dated 2011).

| melting point [°C] | SMILES |
| --- | --- |
| 167 to 168 | CCOc1cccc(-c2cc(C(F)F)n3ncc(C#Cc4cccc(S(N)(=O)=O)c4)c3n2)c1 [Example 201, 3-[7-Difluoromethyl-5-(3-ethoxy-phenyl)-pyrazolo[1,5-a]pyrimidin-3-ylethynyl]-benzenesulfonamide] |
| 209 | Nc1ncc(C#Cc2cnn3c(C(F)(F)F)cc(-c4ccc(Cl)cc4)nc23)cc1C(F)(F)F [Example 223, 5-[5-(4-Chloro-phenyl)-7-trifluoromethyl-pyrazolo[1,5-a]pyrimidin-3-ylethynyl]-3-trifluoromethyl-pyridin-2-ylamine] |
| 248 to 250 | NS(=O)(=O)c1ccc(C#Cc2cnc3c(C(F)(F)F)cc(-c4ccc(C(F)(F)F)cc4)cn23)s1 [Example 193, 5-[8-Trifluoromethyl-6-(4-trifluoromethyl-phenyl)-imidazo[1,2-a]pyridin-3-ylethynyl]-thiophene-2-sulfonic acid amide] |
| 170 | CN(C)CCNS(=O)(=O)c1ccc(C#Cc2cnn3c(C(F)F)cc(-c4cccc(C(F)(F)F)c4)nc23)s1 [Example 250, 5-[7-Difluoromethyl-5-(3-trifluoromethyl-phenyl)-pyrazolo[1,5-a]pyrimidin-3-ylethynyl]-thiophene-2-sulfonic acid (2-dimethylamino-ethyl)-amide] |
| 231 to 234 | Cc1cc(-c2ccc(Cl)cc2)cn2c(C#Cc3ccc(N)nc3)cnc12 [Example 210, 5-[6-(4-Chloro-phenyl)-8-methyl-imidazo[1,2-a]pyridin-3-ylethynyl]-pyridin-2-ylamine] |
| 265 to 266 | Cc1cc(-c2ccc(Cl)cc2)cn2c(C#Cc3ccc(S(N)(=O)=O)s3)cnc12 [Example 211, 5-[6-(4-Chloro-phenyl)-8-methyl-imidazo[1,2-a]pyridin-3-ylethynyl]-thiophene-2-sulfonic acid amide] |
| 242 to 243 | Nc1ncc(C#Cc2cnn3c(C(F)F)cc(-c4ccc(C(F)(F)F)cc4)nc23)cn1 [Example 213, 5-[7-Difluoromethyl-5-(4-trifluoromethyl-phenyl)-pyrazolo[1,5-a]pyrimidin-3-ylethynyl]-pyrimidin-2-ylamine] |
| 270 | Cc1cc(-c2ccc(C(F)(F)F)cc2)cn2c(C#Cc3ccc(S(N)(=O)=O)s3)cnc12 [Example 212, 5-[8-Methyl-6-(4-trifluoromethyl-phenyl)-imidazo[1,2-a]pyridin-3-ylethynyl]-thiophene-2-sulfonic acid amide] |
| 141 | O=S(=O)(NCc1ccncc1)c1ccc(C#Cc2cnn3c(C(F)F)cc(-c4ccc(C(F)(F)F)cc4)nc23)s1 [Example 277, 5-[7-Difluoromethyl-5-(4-trifluoromethyl-phenyl)-pyrazolo[1,5-a]pyrimidin-3-ylethynyl]-thiophene-2-sulfonic acid (pyridin-4-ylmethyl)-amide] |
| 302 | CC(=O)Nc1ncc(C#Cc2cnn3c(C(F)(F)F)cc(-c4ccc(C(F)(F)F)cc4)nc23)s1 [Example 291, N-{5-[7-Trifluoromethyl-5-(4-trifluoromethyl-phenyl)-pyrazolo[1,5-a]pyrimidin-3-ylethynyl]-thiazol-2-yl}-acetamide] |
| 255 to 256 | Nc1ncc(C#Cc2cnn3c(C(F)(F)F)cc(-c4ccc(C(F)(F)F)cc4)nc23)cn1 [Example 205, 5-[7-Trifluoromethyl-5-(4-trifluoromethyl-phenyl)-pyrazolo[1,5-a]pyrimidin-3-ylethynyl]-pyrimidin-2-ylamine] |
| 149 | NS(=O)(=O)c1cc(C#Cc2ncn3c(C(F)F)cc(-c4ccc(C(F)(F)F)cc4)nc23)c(F)cc1F [Example 274, 5-[4-Difluoromethyl-2-(4-trifluoromethyl-phenyl)-imidazo[1,5-a]pyrimidin-8-ylethynyl]-2,4-difluoro-benzenesulfonamide] |

Continued, molecule first:

| SMILES | melting point [°C] |
| --- | --- |
| NS(=O)(=O)c1cc(C#Cc2ncn3c(C(F)(F)F)cc(-c4ccc(C(F)(F)F)cc4)nc23)c(F)cc1F [Example 177, 2,4-Difluoro-5-[4-trifluoromethyl-2-(4-trifluoromethyl-phenyl)-imidazo[1,5-a]pyrimidin-8-ylethynyl]-benzenesulfonamide] | 247 |
| FC(F)(F)c1cccc(-c2cc(C(F)(F)F)n3ncc(C#Cc4cccnc4)c3n2)c1 [Example 103, 3-Pyridin-3-ylethynyl-7-trifluoromethyl-5-(3-trifluoromethyl-phenyl)-pyrazolo[1,5-a]pyrimidine] | 173 |
| CN(C)CCNS(=O)(=O)c1cccc(C#Cc2cnn3c(C(F)F)cc(-c4ccc(C(F)(F)F)cc4)nc23)c1 [Example 148, 3-[7-Difluoromethyl-5-(4-trifluoromethyl-phenyl)-pyrazolo[1,5-a]pyrimidin-3-ylethynyl]-N-(2-dimethylamino-ethyl)-benzenesulfonamide] | 160 to 162 |
| FC(F)(F)c1cc(-c2ccc(Cl)cc2)nc2c(C#Cc3cccnc3)cnn12 [Example 21, 5-(4-Chloro-phenyl)-3-pyridin-3-ylethynyl-7-trifluoromethyl-pyrazolo[1,5-a]pyrimidine] | 214 to 215 |
| CC(C)(CO)NS(=O)(=O)c1cccc(C#Cc2cnn3c(C4CC4)cc(-c4ccc(Cl)cc4)nc23)c1 [Example 65, 3-[5-(4-Chloro-phenyl)-7-cyclopropyl-pyrazolo[1,5-a]pyrimidin-3-ylethynyl]-N-(2-hydroxy-1,1-dimethyl-ethyl)-benzenesulfonamide] | 202 to 204 |
| NS(=O)(=O)c1ccc(C#Cc2cnn3c(C4CC4)cc(-c4ccc(Cl)cc4)nc23)cc1 [Example 63, 4-[5-(4-Chloro-phenyl)-7-cyclopropyl-pyrazolo[1,5-a]pyrimidin-3-ylethynyl]-benzenesulfonamide] | 225 to 228 |
| NS(=O)(=O)c1cccc(C#Cc2cnn3c(C(F)(F)F)cc(-c4ccc(Cl)cc4)nc23)c1 [Example 98, 3-[5-(4-Chloro-phenyl)-7-trifluoromethyl-pyrazolo[1,5-a]pyrimidin-3-ylethynyl]-benzenesulfonamide] | 218 to 220 |
| NS(=O)(=O)c1ccc(C#Cc2cnn3c(C(F)F)cc(-c4ccc(C(F)(F)F)cc4)nc23)s1 [Example 164, 5-[7-Difluoromethyl-5-(4-trifluoromethyl-phenyl)-pyrazolo[1,5-a]pyrimidin-3-ylethynyl]-thiophene-2-sulfonic acid amide] | 210 |
| COc1ccc(C#Cc2cnn3ccc(-c4ccc(Cl)cc4)nc23)cc1S(=O)(=O)NC(C)(C)CO [Example 75, 5-[5-(4-Chloro-phenyl)-pyrazolo[1,5-a]pyrimidin-3-ylethynyl]-N-(2-hydroxy-1,1-dimethyl-ethyl)-2-methoxy-benzenesulfonamide] | 264 to 266 |
| CC(C)(O)c1cc(-c2ccc(Cl)cc2)nc2c(C#Cc3ccc(S(N)(=O)=O)cc3)cnn12 [Example 153, 4-[5-(4-Chloro-phenyl)-7-(1-hydroxy-1-methyl-ethyl)-pyrazolo[1,5-a]pyrimidin-3-ylethynyl]-benzenesulfonamide] | 267 to 269 |
| NS(=O)(=O)c1ccc(C#Cc2cnn3c(C(F)(F)F)cc(-c4cccc(C(F)(F)F)c4)nc23)s1 [Example 119, 5-[7-Trifluoromethyl-5-(3-trifluoromethyl-phenyl)-pyrazolo[1,5-a]pyrimidin-3-ylethynyl]-thiophene-2-sulfonic acid amide] | 250 |
